Activity calls are given as the source filed them. The rule behind the calls is not given here.
Columns and labels:
[1] = tested on: Receptor-type tyrosine-protein kinase FLT3 (Homo sapiens), P36888 [UNDEFINED MUTATION]; test: Inhibition of FLT3-ITD-F691L mutant (unknown origin) transformed in mouse BaF3 cells assessed as inhibition of STAT5 phosphorylation at Tyr694 residue incubated for 4 hrs by western blot analysis; assay type: cell-based; conditions: dose 0.1-100 nM
[2] = tested on: MKN-45; test: Antiproliferative activity against human MKN-45 cells assessed as reduction in cell viability measured after 72 hrs by CellTiterGlo luminescent assay; assay type: functional, cell-based; conditions: MKN-45, 72 h
[3] = AUC (0 to t) in Sprague-Dawley rat at 10 mg/kg, po measured for 24 hrs by LC-MS/MS analysis; assay type: ADME, organism-based; set-up: time 24 hrs, dose 10 mg/kg, route po; conditions: in vivo
[4] = Toxicity in BALB/c mouse xenografted with human MV4-11 cells assessed as lymphocyte count at 15 mg/kg, iv for 21 days; assay type: organism-based; conditions: in vivo, 504 h, time 21 day
[5] = tested on: Receptor-type tyrosine-protein kinase FLT3 (Homo sapiens), P36888 [UNDEFINED MUTATION]; assay type: cell-based; conditions: BaF3, dose 0.1-100 nM, time 4.0 hrs
[6] = tested on: MV4-11; test: Induction of cell cycle arrest in human MV4-11 cells assessed as proportion of cells at G1 phase at 100 nM incubated for 24 hrs by PI staining based flow cytometry (reference value: 56%); assay type: functional
[7] = tested on: BaF3; test: Antiproliferative activity against mouse BaF3 cells harboring FLT3-ITD-Y842H mutant assessed as reduction in cell viability measured after 72 hrs by CellTiterGlo luminescent assay; assay type: functional, cell-based; conditions: BaF3, 72 h
[8] = tested on: MV4-11; test: Induction of apoptosis in human MV4-11 cells assessed as early apoptotic cells at 10 nM incubated for 24 hrs by AnnexinV-FITC/PI staining based flow cytometry (reference value: 3.09%); assay type: functional
[9] = tested on: MV4-11; test: Antitumor activity against human MV4-11 cells xenografted in BALB/c mouse assessed as inhibition rate of tumor weight at 15 mg/kg, iv BID for 21 days by vernier caliper analysis; assay type: functional; conditions: MV4-11, 504 h, time 21 day
[10] = tested on: BaF3; test: Antiproliferative activity against mouse BaF3 cells harboring FLT3-ITD mutant assessed as reduction in cell viability measured after 72 hrs by CellTiterGlo luminescent assay; assay type: functional, cell-based; conditions: BaF3, 72 h
[11] = tested on: BaF3; test: Antiproliferative activity against mouse BaF3 cells harboring FLT3-ITD-F691L mutant assessed as reduction in cell viability incubated for 72 hrs by CellTiterGlo luminescent assay; assay type: functional, cell-based; conditions: BaF3, 72 h
[12] = tested on: MV4-11; test: Induction of apoptosis in human MV4-11 cells assessed as necrotic cells at 10 nM incubated for 24 hrs by AnnexinV-FITC/PI staining based flow cytometry (reference value: 0.45%); assay type: functional
[13] = tested on: MV4-11; test: Induction of cell cycle arrest in human MV4-11 cells assessed as proportion of cells at G1 phase at 50 nM incubated for 24 hrs by PI staining based flow cytometry (reference value: 56%); assay type: functional
[14] = biological target: Receptor-type tyrosine-protein kinase FLT3 (Homo sapiens) (UniProt P36888); test: Inhibition of FLT3 in human MV4-11 cells assessed as inhibition of ERK phosphorylation at Thr202/Tyr204 residue incubated for 4 hrs by western blot analysis; assay type: cell-based; conditions: dose 0.1-100 nM
[15] = tested on: Receptor-type tyrosine-protein kinase FLT3 (Homo sapiens), P36888 [UNDEFINED MUTATION]; test: Inhibition of FLT3-ITD-F691L mutant (unknown origin) transformed in mouse BaF3 cells assessed as inhibition of FLT3 phosphorylation at Tyr589/591 residue incubated for 4 hrs by western blot analysis; assay type: cell-based; conditions: dose 0.1-100 nM
[16] = tested on: MV4-11; test: Induction of apoptosis in human MV4-11 cells assessed as late apoptotic cells at 100 nM incubated for 24 hrs by AnnexinV-FITC/PI staining based flow cytometry (reference value: 4.2%); assay type: functional
[17] = biological target: Receptor-type tyrosine-protein kinase FLT3 (Homo sapiens) (UniProt P36888); test: Inhibition of FLT3 in human MV4-11 cells assessed as inhibition of ERK phosphorylation at Thr202/Tyr204 residue at 10 nM incubated for 4 hrs by western blot analysis; assay type: cell-based
[18] = Toxicity in ICR mouse assessed as behavioural changes at 100 mg/kg, iv administered as single dose and measured for 14 days; assay type: organism-based; conditions: in vivo, 336 h, time 14 day
[19] = biological target: Receptor-type tyrosine-protein kinase FLT3 (Homo sapiens) (UniProt P36888); test: Inhibition of FLT3 in human MV4-11 cells assessed as inhibition of FLT3 phosphorylation at Tyr589/591 residue incubated for 4 hrs by western blot analysis; assay type: cell-based; conditions: dose 0.1-100 nM
[20] = tested on: BaF3; test: Antiproliferative activity against mouse BaF3 cells harboring FLT3-ITD-F691L mutant assessed as residual cell viability at 50 nM incubated for 72 hrs by CellTiterGlo luminescent assay; assay type: functional
[21] = tested on: A549; test: Antiproliferative activity against human A549 cells assessed as reduction in cell viability measured after 72 hrs by CellTiterGlo luminescent assay; assay type: functional, cell-based; conditions: A549, 72 h
[22] = Toxicity in BALB/c mouse xenografted with human MV4-11 cells assessed as neutrophil count at 15 mg/kg, iv for 21 days; assay type: organism-based; conditions: in vivo, 504 h, time 21 day
[23] = Toxicity in ICR mouse assessed as effect on animal's survival rate at 100 mg/kg, iv administered as single dose and measured for 14 days; assay type: organism-based; conditions: in vivo, 336 h, time 14 day
[24] = tested on: MV4-11; test: Induction of cell cycle arrest in human MV4-11 cells assessed as proportion of cells at G1 phase at 10 nM incubated for 24 hrs by PI staining based flow cytometry (reference value: 56%); assay type: functional
[25] = tested on: MV4-11; test: Induction of apoptosis in human MV4-11 cells assessed as necrotic cells at 50 nM incubated for 24 hrs by AnnexinV-FITC/PI staining based flow cytometry (reference value: 0.45%); assay type: functional
[26] = Toxicity in BALB/c mouse xenografted with human MV4-11 cells assessed as platelet count at 15 mg/kg, iv for 21 days; assay type: organism-based; conditions: in vivo, 504 h, time 21 day
[27] = tested on: HCD-57; test: Induction of cell cycle arrest in mouse HCD-57 cells harboring FLT3-D835Y mutant at 100 nM incubated for 24 hrs by PI staining based flow cytometry; assay type: functional
[28] = Toxicity in BALB/c mouse xenografted with human MV4-11 cells assessed as morphological changes in spleen at 15 mg/kg, iv for 21 days by H and E staining based analysis; assay type: organism-based; conditions: in vivo, 504 h, time 21 day
[29] = Cmax in Sprague-Dawley rat at 10 mg/kg, po measured for 24 hrs by LC-MS/MS analysis; assay type: ADME, organism-based; set-up: time 24 hrs, dose 10 mg/kg, route po; conditions: in vivo
[30] = AUC (0 to t) in Sprague-Dawley rat at 1 mg/kg, iv measured for 24 hrs by LC-MS/MS analysis; assay type: ADME, organism-based; set-up: dose 1 mg/kg, time 24 hrs, route iv; conditions: in vivo
[31] = tested on: HCD-57; test: Induction of apoptosis in mouse HCD-57 cells harboring FLT3-D835Y mutant at 100 nM incubated for 24 hrs by AnnexinV-FITC/PI staining based flow cytometry; assay type: functional, cell-based
[32] = Tmax in Sprague-Dawley rat at 10 mg/kg, po measured for 24 hrs by LC-MS/MS analysis; assay type: ADME, organism-based; conditions: in vivo
[33] = tested on: MV4-11; test: Induction of apoptosis in human MV4-11 cells assessed as late apoptotic cells at 10 nM incubated for 24 hrs by AnnexinV-FITC/PI staining based flow cytometry (reference value: 4.2%); assay type: functional
[34] = Half-life in Sprague-Dawley rat at 1 mg/kg, iv measured for 24 hrs by LC-MS/MS analysis; assay type: ADME, organism-based; conditions: in vivo
[35] = tested on: MV4-11; test: Induction of apoptosis in human MV4-11 cells assessed as early apoptotic cells at 50 nM incubated for 24 hrs by AnnexinV-FITC/PI staining based flow cytometry (reference value: 3.09%); assay type: functional
[36] = Toxicity in BALB/c mouse xenografted with human MV4-11 cells assessed as change in body weight at 15 mg/kg, iv QD for 21 days; assay type: organism-based; conditions: in vivo, 504 h, time 21 day

Receptor-type tyrosine-protein kinase FLT3 (Homo sapiens), sequence (P36888 whole entry): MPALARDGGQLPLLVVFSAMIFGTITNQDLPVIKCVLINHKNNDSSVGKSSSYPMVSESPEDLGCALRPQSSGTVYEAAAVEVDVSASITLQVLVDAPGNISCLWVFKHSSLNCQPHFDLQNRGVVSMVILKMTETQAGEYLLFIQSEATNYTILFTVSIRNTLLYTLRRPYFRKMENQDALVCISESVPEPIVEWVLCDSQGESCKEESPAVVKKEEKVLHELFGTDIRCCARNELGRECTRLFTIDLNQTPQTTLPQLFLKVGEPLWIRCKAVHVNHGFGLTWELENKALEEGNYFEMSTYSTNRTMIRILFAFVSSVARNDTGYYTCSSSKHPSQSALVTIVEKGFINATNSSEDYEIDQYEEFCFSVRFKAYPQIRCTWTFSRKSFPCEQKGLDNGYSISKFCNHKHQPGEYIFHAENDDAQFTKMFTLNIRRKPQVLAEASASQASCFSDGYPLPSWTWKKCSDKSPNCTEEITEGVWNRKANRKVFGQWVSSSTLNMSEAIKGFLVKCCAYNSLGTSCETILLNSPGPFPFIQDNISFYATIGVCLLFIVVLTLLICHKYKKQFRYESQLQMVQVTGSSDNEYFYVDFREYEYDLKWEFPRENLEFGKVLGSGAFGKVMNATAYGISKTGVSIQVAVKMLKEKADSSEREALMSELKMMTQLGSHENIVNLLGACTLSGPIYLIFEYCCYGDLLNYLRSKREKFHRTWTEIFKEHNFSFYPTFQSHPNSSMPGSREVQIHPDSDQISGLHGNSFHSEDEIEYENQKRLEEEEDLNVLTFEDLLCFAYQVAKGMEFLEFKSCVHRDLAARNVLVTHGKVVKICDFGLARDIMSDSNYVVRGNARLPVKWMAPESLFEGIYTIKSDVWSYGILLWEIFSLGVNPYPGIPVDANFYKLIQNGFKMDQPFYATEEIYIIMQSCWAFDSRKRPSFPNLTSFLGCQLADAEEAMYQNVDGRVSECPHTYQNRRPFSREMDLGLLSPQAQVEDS
Receptor-type tyrosine-protein kinase FLT3 (Homo sapiens), P36888 [UNDEFINED MUTATION], sequence (P36888 whole entry, looked up, stated change not applied): as the sequence (P36888 whole entry) above

For `CCN1CCN(c2ccc(C(=O)Nc3cc(-c4ccc5ncn(Cc6c(Cl)cccc6Cl)c5c4)[nH]n3)cc2)CC1`, the inhibition [1] was “Dose-Dependent Effect”, the IC50 [2] was 4030 nM and the AUC(0-t) at 24 h [3] was 50.9 ng·h/mL. The Activity [4] was “Non-Toxic”, the inhibition [5] was “Dose-Dependent Effect” and the Activity [6] was 90.3%. For the same molecule, the IC50 [7] was < 1.5 nM, the Activity [8] was 10.4% and the inhibition in vivo at 15 mg/kg [9] was 85.2%. For the same molecule, the IC50 [10] was 7.6 nM, the IC50 [11] was 8.3 nM and the Activity [12] was 1.3%. For the same molecule, the Activity [13] was 88.1%, the inhibition [14] was “Dose-Dependent Effect” and the inhibition [15] was “Dose-Dependent Effect”. The Activity [16] was 24.5%, the inhibition [17] was 100% and the Activity [18] was “Non-Toxic”. The inhibition [19] was “Dose-Dependent Effect”, the Activity [20] was 2.54% and the IC50 [21] was 3660 nM. The Activity [22] was “Non-Toxic”, the Activity [23] was “Non-Toxic” and the Activity [24] was 88.7%. For the same molecule, the Activity [25] was 0.87%, the Activity [26] was “Non-Toxic” and the Activity [27] was “Active”. For the same molecule, the Activity [28] was “Non-Toxic”, the Cmax [29] was 9.31 ng/mL and the AUC(0-t) at 24 h [30] was 391 ng·h/mL. For the same molecule, the Activity [31] was “Active”, the Tmax [32] was 1.33 h and the Activity [33] was 20.5%. For the same molecule, the half-life [34] was 2.25 h, the Activity [35] was 11.3% and the Activity [36] was “Non-Toxic”.
